According to patent EP2349249B1, “SYNERGISTIC COMPOSITION FOR RECOVERY AND REDUCTION OF MILD ISCHEMIC DAMAGE” (Giellepi S.p.A., priority 2008, dated 2010):

Key:
H9c2 cells [1] = assay: Cell cycle profile by flow cytometry (propidium iodide) in simulated ischemia; assay type: cell-based; conditions: ischemic H9c2 cells; 2.5 mM Creatine and/or 5 mM Ribose
Protocol: The cell cycle profile was analyzed by flow cytometry after DNA staining with propidium iodide (PI, Sigma, St. Louis, Mo.). Cells were washed with PBS and fixed with 70% ethanol at -20°C, centrifuged (15 min at 1800 rpm), resuspended in 1 ml PBS containing 50 µg/ml PI and incubated for 1 hour at room temperature Cells were then analyzed by flow cytometry in a FACSorter (Becton Dickinson). The percentage of cells in different phases of the cell cycle was calculated using the CellQuest software program (Becton Dickinson).

H9c2 cells [2] = assay: MTT cell viability assay in doxorubicin-treated cells; assay type: cell-based; conditions: H9c2 cells treated for 24 hours with 0.5 µM doxorubicin; for minimal effective concentration: Rattus norvegicus, MTT dose-response curve, read-out: minimum effective concentration required to improve viability (sufficient to induce protection)
Protocol: Cells were seeded at a concentration of 1.8x10^3/well in 96-well plates and incubated at 37°C for 24 hours. Cells were then incubated for additional 24 hours after addition of water or doxorubicin (0.5 µM final concentration) in presence of different concentrations of Cr and/or Rib, as indicated in the figures. Cell viability was determined by the 2-(4,5-dimethyltriazol-2-yl)-2,5-diphenyl tetrazolium bromide assay (MTT, Sigma, St Louis, Mo). Briefly, after addition to each well of 20µl of the MTT solution in PBS at a concentration of 5 mg/ml, cells were incubated at 37°C for 4 hours. After removal of the supernatant, 100 µl of DMSO were added to dissolve the formazan salts produced and optical density (OD) was read at λ=540 nm. For each treatment, five replicates were performed. The viability index was calculated, for each treatment, as ODx/OD0, where ODx and OD0 are the average ODs at time x and at time zero.
The optimal working concentration was determined by a dose-response curve using the MTT assay (vital dye staining) in presence of Creatine and Ribose. To test the efficacy of creatine and ribose in maintaining cellular energy homeostasis, H9c2 cells were treated with doxorubicin, a well-known cardiotoxic agent that causes mitochondrial damage resulting in production of reactive oxygen species.

Row | SMILES | change of the percentage of cells progressing from G1 to S phase (H9c2 cells [1]) | minimal effective concentration (H9c2 cells [2]) | decrease of viability compared to untreated cells (H9c2 cells [2]; MTT)
1 | CN(CC(=O)O)C(=N)N.O [Creatine, Creatine monohydrate] | did not change | 2500 µM | 
2 | COc1cccc2c1C(=O)c1c(O)c3c(c(O)c1C2=O)C[C@@](O)(C(=O)CO)C[C@@H]3O[C@H]1C[C@H](N)[C@H](O)[C@H](C)O1 [Doxo, doxorubicin, reference compound] |  |  | 35%
3 | O=C[C@H](O)[C@H](O)[C@H](O)CO [Ribose, D-ribose] | did not change | 5000 µM | 
